From ChEMBL document CHEMBL1201861, “Genomics of Drug Sensitity in Cancer screening data, Wellcome Trust Sanger Institute”
pIC50: −log10 of the molar value.

Assays:
Assay in all cases: cells
HO-1-N-1 = format: functional, cell-based, Homo sapiens; details: Homo sapiens, HO-1-N-1;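 note: growth inhibition of human HO-1-N-1 cells, read out with a cell viability assay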
Description: SANGER: Inhibition of human HO-1-N-1 cell growth in a cell viability assay.

DEL = format: functional, cell-based; details: Homo sapiens;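 note: growth inhibition of the human DEL cell line, read out with a cell viability assay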
Description: SANGER: Inhibition of human DEL cell growth in a cell viability assay.

NCI-H1693 = format: functional, cell-based, Homo sapiens; details: Homo sapiens, NCI-H1693;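 note: growth inhibition of the human cell line, read out with a cell viability assay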
Description: SANGER: Inhibition of human NCI-H1693 cell growth in a cell viability assay.

NCI-H446 = format: functional, cell-based; details: Homo sapiens;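 note: growth inhibition of NCI-H446 cells determined by a cell viability assay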
Description: SANGER: Inhibition of human NCI-H446 cell growth in a cell viability assay.

EC-GI-10 = format: functional, cell-based, Homo sapiens; details: Homo sapiens, EC-GI-10
Description: SANGER: Inhibition of human EC-GI-10 cell growth in a cell viability assay.

JVM-3 = format: functional, cell-based; details: Homo sapiens;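 note: growth inhibition of human JVM-3 cells, read out with a cell viability assay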
Description: SANGER: Inhibition of human JVM-3 cell growth in a cell viability assay.

T47D = format: functional, cell-based, Homo sapiens; details: Homo sapiens, T47D;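 note: growth inhibition of human T47D cells, measured with a cell viability assay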
Description: SANGER: Inhibition of human T47D cell growth in a cell viability assay.

BCPAP = format: functional, cell-based, Homo sapiens; details: Homo sapiens, BCPAP;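 note: growth inhibition of BCPAP cells, read out in a cell viability assay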
Description: SANGER: Inhibition of human BCPAP cell growth in a cell viability assay.

NCI-H69 = format: functional, cell-based; details: Homo sapiens;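 note: growth inhibition of the cell line, read out with a cell viability assay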
Description: SANGER: Inhibition of human NCI-H69 cell growth in a cell viability assay.

Hs-578T = format: functional, cell-based, Homo sapiens; details: Homo sapiens, Hs-578T
Description: SANGER: Inhibition of human Hs-578-T cell growth in a cell viability assay.

CP66-MEL = format: functional, cell-based, Homo sapiens; details: Homo sapiens, CP66-MEL;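 note: growth inhibition of CP66-MEL cells determined in a cell viability assay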
Description: SANGER: Inhibition of human CP66-MEL cell growth in a cell viability assay.

MN-60 = format: functional, cell-based; details: Homo sapiens;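 note: growth inhibition of the MN-60 cell line, determined with a cell viability assay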
Description: SANGER: Inhibition of human MN-60 cell growth in a cell viability assay.

MMAC-SF = format: functional, cell-based, Homo sapiens; details: Homo sapiens, MMAC-SF;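 note: growth inhibition of human MMAC-SF cells, read out with a cell viability assay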
Description: SANGER: Inhibition of human MMAC-SF cell growth in a cell viability assay.

ESS-1 = format: functional, cell-based, Homo sapiens; details: Homo sapiens, ESS-1;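 note: growth inhibition of human ESS-1 cells, read out by a cell viability assay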
Description: SANGER: Inhibition of human ESS-1 cell growth in a cell viability assay.

SW48 = format: functional, cell-based, Homo sapiens; details: Homo sapiens, SW48;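 note: growth inhibition of SW48 cells, read out with a cell viability assay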
Description: SANGER: Inhibition of human SW48 cell growth in a cell viability assay.

UO-31 = format: functional, cell-based; details: Homo sapiens;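 note: cell viability assay measuring inhibition of cell growth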
Description: SANGER: Inhibition of human U031 cell growth in a cell viability assay.

CAL-33 = format: functional, cell-based, Homo sapiens; details: Homo sapiens, CAL-33;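 note: growth inhibition of CAL-33 cells, read out with a cell viability assay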
Description: SANGER: Inhibition of human CAL-33 cell growth in a cell viability assay.

HC-1 = format: functional, cell-based; details: Homo sapiens;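 note: growth inhibition of HC-1 cells measured by a cell viability assay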
Description: SANGER: Inhibition of human HC-1 cell growth in a cell viability assay.

COLO-684 = format: functional, cell-based; details: Homo sapiens
Description: SANGER: Inhibition of human COLO-684 cell growth in a cell viability assay.

DU-145 = format: functional, cell-based, Homo sapiens; details: Homo sapiens, DU-145
Description: SANGER: Inhibition of human DU-145 cell growth in a cell viability assay.

COLO-741 = format: functional, cell-based, Homo sapiens; details: Homo sapiens, COLO-741
Description: SANGER: Inhibition of human COLO-741 cell growth in a cell viability assay.

MOLT-4 = format: functional, cell-based; details: Homo sapiens;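 note: growth inhibition of MOLT-4 cells, determined with a cell viability readout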
Description: SANGER: Inhibition of human MOLT-4 cell growth in a cell viability assay.

RO82-W-1 = format: functional, cell-based, Homo sapiens; details: Homo sapiens, RO82-W-1;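 note: growth inhibition of human RO82-W-1 cells, measured with a cell viability assay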
Description: SANGER: Inhibition of human RO82-W-1 cell growth in a cell viability assay.

NH-12 = format: functional, cell-based, Homo sapiens; details: Homo sapiens, NH-12;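 note: growth inhibition of NH-12 cells, read out with a cell viability assay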
Description: SANGER: Inhibition of human NH-12 cell growth in a cell viability assay.

OCI-AML2 = format: functional, cell-based; details: Homo sapiens;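 note: growth inhibition of OCI-AML2 cells, read out with a cell viability assay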
Description: SANGER: Inhibition of human OCI-AML2 cell growth in a cell viability assay.

NCI-H1299 = format: functional, cell-based, Homo sapiens; details: Homo sapiens, NCI-H1299;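 note: growth inhibition of human NCI-H1299 cells, read out by a cell viability assay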
Description: SANGER: Inhibition of human NCI-H1299 cell growth in a cell viability assay.

UMUC3 = format: functional, cell-based, Homo sapiens; details: Homo sapiens, UMUC3;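 note: growth inhibition of human UM-UC-3 cells, read out with a cell viability assay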
Description: SANGER: Inhibition of human UM-UC-3 cell growth in a cell viability assay.

SK-LU-1 = format: functional, cell-based, Homo sapiens; details: Homo sapiens, SK-LU-1;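 note: cell viability assay measuring growth inhibition of human SK-LU-1 cells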
Description: SANGER: Inhibition of human SK-LU-1 cell growth in a cell viability assay.

HD-MY-Z = format: functional, cell-based, Homo sapiens; details: Homo sapiens, HD-MY-Z;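 note: growth inhibition of HD-MY-Z cells, read out with a cell viability assay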
Description: SANGER: Inhibition of human HD-MY-Z cell growth in a cell viability assay.

HCE-T = format: functional, cell-based, Homo sapiens; details: Homo sapiens, HCE-T;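 note: cell viability assay read-out, reporting inhibition of HCE-T cell growth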
Description: SANGER: Inhibition of human HCE-T cell growth in a cell viability assay.

ACN = format: functional, cell-based, Homo sapiens; details: Homo sapiens, ACN;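 note: growth inhibition of the human ACN cell line, read out via cell viability testing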
Description: SANGER: Inhibition of human ACN cell growth in a cell viability assay.

NB12 = format: functional, cell-based, Homo sapiens; details: Homo sapiens, NB12;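 note: growth inhibition of human NB12 cells, read out by a cell viability assay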
Description: SANGER: Inhibition of human NB12 cell growth in a cell viability assay.

OE19 = format: functional, cell-based, Homo sapiens; details: Homo sapiens, OE19;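 note: growth inhibition of OE19 cells, measured through a cell viability read-out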
Description: SANGER: Inhibition of human OE19 cell growth in a cell viability assay.

SHP77 = format: functional, cell-based, Homo sapiens, SHP-77; details: Homo sapiens, SHP77;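 note: growth inhibition of human SHP-77 cells measured by a cell viability assay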
Description: SANGER: Inhibition of human SHP-77 cell growth in a cell viability assay.

NCI-H727 = format: functional, cell-based, Homo sapiens; details: Homo sapiens, NCI-H727;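 note: growth inhibition of human NCI-H727 cells, read out with a cell viability assay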
Description: SANGER: Inhibition of human NCI-H727 cell growth in a cell viability assay.

KP-N-YS = format: functional, cell-based; details: Homo sapiens;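 note: cell viability assay measuring inhibition of cell line growth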
Description: SANGER: Inhibition of human KP-N-YS cell growth in a cell viability assay.

BPH-1 = format: functional, cell-based, Homo sapiens; details: Homo sapiens, BPH-1;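 note: cell viability assay measuring growth inhibition of human BPH-1 cells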
Description: SANGER: Inhibition of human BPH-1 cell growth in a cell viability assay.

DOK = format: functional, cell-based, Homo sapiens; details: Homo sapiens, DOK;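 note: cell viability assay read-out, values reflect inhibition of cell growth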
Description: SANGER: Inhibition of human DOK cell growth in a cell viability assay.

EKVX = format: functional, cell-based, Homo sapiens; details: Homo sapiens, EKVX;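 note: growth inhibition of human EKVX cells, read out with a cell viability assay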
Description: SANGER: Inhibition of human EKVX cell growth in a cell viability assay.

697 = format: functional, cell-based; details: Homo sapiens
Description: SANGER: Inhibition of human 697 cell growth in a cell viability assay.

A204 = format: functional, cell-based, Homo sapiens; details: Homo sapiens, A204;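 note: growth inhibition of human A204 cells, read out with a cell viability assay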
Description: SANGER: Inhibition of human A204 cell growth in a cell viability assay.

SW872 = format: functional, cell-based, Homo sapiens; details: Homo sapiens, SW872;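 note: growth inhibition of SW872 cells, read out by a viability assay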
Description: SANGER: Inhibition of human SW872 cell growth in a cell viability assay.

MS-1 = format: functional, cell-based; details: Homo sapiens;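 note: growth inhibition of MS-1 cells, read out by cell viability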
Description: SANGER: Inhibition of human MS-1 cell growth in a cell viability assay.

MEL-HO = format: functional, cell-based, Homo sapiens; details: Homo sapiens, MEL-HO
Description: SANGER: Inhibition of human MEL-HO cell growth in a cell viability assay.

GI-1 = format: functional, cell-based, Homo sapiens; details: Homo sapiens, GI-1
Description: SANGER: Inhibition of human GI-1 cell growth in a cell viability assay.

D-392MG = format: functional, cell-based, Homo sapiens; details: Homo sapiens, D-392MG
Mo = format: functional, cell-based; details: Homo sapiens
Description: SANGER: Inhibition of human Mo-T cell growth in a cell viability assay.

HCC38 = format: functional, cell-based, Homo sapiens; details: Homo sapiens, HCC38;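 note: cell viability assay on the human HCC38 cell line, with IC50 marking the concentration that inhibits cell growth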
Description: SANGER: Inhibition of human HCC38 cell growth in a cell viability assay.

CAL-62 = format: functional, cell-based, Homo sapiens; details: Homo sapiens, CAL-62;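 note: growth inhibition of CAL-62 cells, read out with a cell viability assay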
Description: SANGER: Inhibition of human CAL-62 cell growth in a cell viability assay.

P30-OHK = format: functional, cell-based; details: Homo sapiens;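 note: growth inhibition of the P30-OHK cell line, read out with a cell viability assay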
Description: SANGER: Inhibition of human P30-OHK cell growth in a cell viability assay.

CGTH-W-1 = format: functional, cell-based, Homo sapiens; details: Homo sapiens, CGTH-W-1;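 note: growth inhibition of human CGTH-W-1 cells measured by cell viability assay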
Description: SANGER: Inhibition of human CGTH-W-1 cell growth in a cell viability assay.

SK-N-DZ = format: functional, cell-based, Homo sapiens; details: Homo sapiens, SK-N-DZ;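 note: growth inhibition of the cancer cell line, read out through a viability assay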
Description: SANGER: Inhibition of human SK-N-DZ cell growth in a cell viability assay.

D-263MG = format: functional, cell-based, Homo sapiens; details: Homo sapiens, D-263MG
Description: SANGER: Inhibition of human D-263MG cell growth in a cell viability assay.

With `Cc1ccc(Nc2nccc(N(C)c3ccc4c(C)n(C)nc4c3)n2)cc1S(N)(=O)=O` [PAZOPANIB] the pIC50 (HO-1-N-1) was under 5.10, the pIC50 (DEL) was under 5.10 and the pIC50 (NCI-H1693) was under 5.10. The pIC50 (NCI-H446) was under 5.10, the pIC50 (EC-GI-10) was under 5.10 and the pIC50 (JVM-3) was under 5.10. It also gave a pIC50 (T47D) of under 5.10, a pIC50 (BCPAP) of under 5.10 and a pIC50 (NCI-H69) of under 5.10. For the same compound, the pIC50 (Hs-578T) was under 5.10, the pIC50 (CP66-MEL) was under 5.10 and the pIC50 (MN-60) was under 5.10. For the same compound, the pIC50 (MMAC-SF) was under 5.10, the pIC50 (ESS-1) was 5.79 and the pIC50 (SW48) was under 5.10. It also gave a pIC50 (UO-31) of under 5.10, a pIC50 (CAL-33) of under 5.10 and a pIC50 (HC-1) of under 5.10. The pIC50 (COLO-684) was under 5.10, the pIC50 (DU-145) was under 5.10 and the pIC50 (COLO-741) was under 5.10. For the same compound, the pIC50 (MOLT-4) was under 5.10, the pIC50 (RO82-W-1) was under 5.10 and the pIC50 (NH-12) was under 5.10. For the same compound, the pIC50 (OCI-AML2) was under 5.10, the pIC50 (NCI-H1299) was under 5.10 and the pIC50 (UMUC3) was under 5.10. The pIC50 (SK-LU-1) was 5.50, the pIC50 (HD-MY-Z) was under 5.10 and the pIC50 (HCE-T) was under 5.10. For the same compound, the pIC50 (ACN) was under 5.10, the pIC50 (NB12) was under 5.10 and the pIC50 (OE19) was under 5.10. The pIC50 (SHP77) was under 5.10, the pIC50 (NCI-H727) was 5.27 and the pIC50 (KP-N-YS) was under 5.10. The pIC50 (BPH-1) was under 5.10, the pIC50 (DOK) was under 5.10 and the pIC50 (EKVX) was under 5.10. For the same compound, the pIC50 697 was under 5.10, the pIC50 (A204) was 6.96 and the pIC50 (SW872) was under 5.10. It also gave a pIC50 (MS-1) of under 5.10, a pIC50 (MEL-HO) of under 5.10 and a pIC50 (GI-1) of 5.65. The pIC50 (D-392MG) was under 5.10, the pIC50 (Mo) was under 5.10 and the pIC50 (HCC38) was under 5.10. It also gave a pIC50 (CAL-62) of under 5.10, a pIC50 (P30-OHK) of 5.26 and a pIC50 (CGTH-W-1) of 7.40. It also gave a pIC50 (SK-N-DZ) of 5.69 and a pIC50 (D-263MG) of under 5.10.

`CN(c1ncccc1CNc1nc(Nc2ccc3c(c2)CC(=O)N3)ncc1C(F)(F)F)S(C)(=O)=O` [PF-00562271] was tested, and the pIC50 (HO-1-N-1) was under 5.59, the pIC50 (DEL) was under 5.59 and the pIC50 (NCI-H1693) was under 5.59. The pIC50 (NCI-H446) was under 5.59, the pIC50 (EC-GI-10) was under 5.59 and the pIC50 (JVM-3) was under 5.59. For the same compound, the pIC50 (T47D) was under 5.59, the pIC50 (BCPAP) was 5.99 and the pIC50 (NCI-H69) was under 5.59. For the same compound, the pIC50 (Hs-578T) was under 5.59, the pIC50 (CP66-MEL) was under 5.59 and the pIC50 (MN-60) was under 5.59. For the same compound, the pIC50 (MMAC-SF) was under 5.59, the pIC50 (ESS-1) was under 5.59 and the pIC50 (SW48) was under 5.59. It also gave a pIC50 (UO-31) of under 5.59, a pIC50 (CAL-33) of 5.95 and a pIC50 (HC-1) of under 5.59. The pIC50 (COLO-684) was under 5.59, the pIC50 (DU-145) was 5.60 and the pIC50 (COLO-741) was under 5.59. It also gave a pIC50 (MOLT-4) of under 5.59, a pIC50 (RO82-W-1) of under 5.59 and a pIC50 (NH-12) of under 5.59. For the same compound, the pIC50 (OCI-AML2) was under 5.59, the pIC50 (NCI-H1299) was under 5.59 and the pIC50 (UMUC3) was under 5.59. The pIC50 (SK-LU-1) was under 5.59, the pIC50 (HD-MY-Z) was under 5.59 and the pIC50 (HCE-T) was under 5.59. It also gave a pIC50 (ACN) of 5.63, a pIC50 (NB12) of under 5.59 and a pIC50 (OE19) of under 5.59. For the same compound, the pIC50 (SHP77) was under 5.59, the pIC50 (NCI-H727) was under 5.59 and the pIC50 (KP-N-YS) was under 5.59. The pIC50 (BPH-1) was 5.89, the pIC50 (DOK) was under 5.59 and the pIC50 (EKVX) was under 5.59. For the same compound, the pIC50 697 was under 5.59, the pIC50 (A204) was under 5.59 and the pIC50 (SW872) was under 5.59. For the same compound, the pIC50 (MS-1) was under 5.59, the pIC50 (MEL-HO) was 5.70 and the pIC50 (GI-1) was under 5.59. For the same compound, the pIC50 (D-392MG) was under 5.59, the pIC50 (Mo) was under 5.59 and the pIC50 (HCC38) was under 5.59. For the same compound, the pIC50 (CAL-62) was 5.88, the pIC50 (P30-OHK) was under 5.59 and the pIC50 (CGTH-W-1) was 5.79. The pIC50 (SK-N-DZ) was under 5.59 and the pIC50 (D-263MG) was under 5.59.
